According to patent US12180194B2, “Multi-aziridine compound” (Covestro (Netherlands) B.V., priority 2018, dated 2024):

Experiments:
Bscl2-GFP = assay: ToxTracker genotoxicity assay, Bscl2-GFP reporter induction; details: for Genotoxicity test, With S9 rat liver extract, Bscl 2, 10 / Genotoxicity test, Without S9 rat liver extract, Bscl 2, 10: GFP induction vs vehicle at 10% cytotoxicity; for Genotoxicity test, With S9 rat liver extract, Bscl 2, 10 / Genotoxicity test, With S9 rat liver extract, Bscl 2, 25 / Genotoxicity test, With S9 rat liver extract, Bscl 2, 50: 3 h exposure with S9, 24 h recovery; for Genotoxicity test, Without S9 rat liver extract, Bscl 2, 10 / Genotoxicity test, Without S9 rat liver extract, Bscl 2, 25 / Genotoxicity test, Without S9 rat liver extract, Bscl 2, 50: 24 h exposure, no S9; for Genotoxicity test, With S9 rat liver extract, Bscl 2, 25 / Genotoxicity test, Without S9 rat liver extract, Bscl 2, 25: GFP induction vs vehicle at 25% cytotoxicity; for Genotoxicity test, With S9 rat liver extract, Bscl 2, 50 / Genotoxicity test, Without S9 rat liver extract, Bscl 2, 50: GFP induction vs vehicle at 50% cytotoxicity
Rtkn-GFP = assay: ToxTracker genotoxicity assay, Rtkn-GFP reporter induction; details: for Genotoxicity test, With S9 rat liver extract, Rtkn, 10 / Genotoxicity test, Without S9 rat liver extract, Rtkn, 10: GFP induction vs vehicle at 10% cytotoxicity; for Genotoxicity test, With S9 rat liver extract, Rtkn, 10 / Genotoxicity test, With S9 rat liver extract, Rtkn, 25 / Genotoxicity test, With S9 rat liver extract, Rtkn, 50: 3 h exposure with S9, 24 h recovery; for Genotoxicity test, Without S9 rat liver extract, Rtkn, 10 / Genotoxicity test, Without S9 rat liver extract, Rtkn, 25 / Genotoxicity test, Without S9 rat liver extract, Rtkn, 50: 24 h exposure, no S9; for Genotoxicity test, With S9 rat liver extract, Rtkn, 25 / Genotoxicity test, Without S9 rat liver extract, Rtkn, 25: GFP induction vs vehicle at 25% cytotoxicity; for Genotoxicity test, With S9 rat liver extract, Rtkn, 50 / Genotoxicity test, Without S9 rat liver extract, Rtkn, 50: GFP induction vs vehicle at 50% cytotoxicity

Row | SMILES | Genotoxicity test, With S9 rat liver extract, Bscl 2, 10 (Bscl2-GFP) | Genotoxicity test, Without S9 rat liver extract, Bscl 2, 10 (Bscl2-GFP) | Genotoxicity test, With S9 rat liver extract, Bscl 2, 25 (Bscl2-GFP) | Genotoxicity test, Without S9 rat liver extract, Bscl 2, 25 (Bscl2-GFP) | Genotoxicity test, With S9 rat liver extract, Bscl 2, 50 (Bscl2-GFP) | Genotoxicity test, Without S9 rat liver extract, Bscl 2, 50 (Bscl2-GFP) | Genotoxicity test, With S9 rat liver extract, Rtkn, 10 (Rtkn-GFP) | Genotoxicity test, Without S9 rat liver extract, Rtkn, 10 (Rtkn-GFP) | Genotoxicity test, With S9 rat liver extract, Rtkn, 25 (Rtkn-GFP) | Genotoxicity test, Without S9 rat liver extract, Rtkn, 25 (Rtkn-GFP) | Genotoxicity test, With S9 rat liver extract, Rtkn, 50 (Rtkn-GFP) | Genotoxicity test, Without S9 rat liver extract, Rtkn, 50 (Rtkn-GFP)
1 | CCCCOCC(CN1CC1C)OC(=O)NC(C)(C)c1cccc(C(C)(C)NC(=O)OC(COCCCC)CN2CC2C)c1 (stereo not shown) [Ex. 11] | 1.2 fold | 1.1 fold | 1.3 fold | 1.3 fold | 1.3 fold | 1.3 fold | 1.3 fold | 1.1 fold | 1.3 fold | 1.3 fold | 1.1 fold | 1.3 fold
2 | CCCCOCC(CN1CC1C)OC(=O)NC1CCC(CC2CCC(NC(=O)OC(COCCCC)CN3CC3C)CC2)CC1 (stereo not shown) [Ex. 12] | 1.1 fold | 1.0 fold | 1.0 fold | 1.0 fold | 1.0 fold | 1.0 fold | 1.0 fold | 1.0 fold | 1.0 fold | 1.0 fold | 1.1 fold | 1.0 fold
3 | CCCCOCC(CN1CC1C)OC(=O)NCCCCCCN1C(=O)N(CCCCCCNC(=O)OC(COCCCC)CN2CC2C)C1=O (stereo not shown) [Ex. 13] | 1.2 fold | 1.1 fold | 1.2 fold | 1.3 fold | – | – | 1.4 fold | 1.1 fold | 1.6 fold | 1.2 fold | – | –
4 | CCCCOCC(CN1CC1C)OC(=O)NCCCCCCn1c(=O)n(CCCCCCNC(=O)OC(COCCCC)CN2CC2C)c(=O)n(CCCCCCNC(=O)OC(COCCCC)CN2CC2C)c1=O (stereo not shown) [Ex. 14] | 1.0 fold | 1.1 fold | 1.0 fold | 1.1 fold | – | 1.1 fold | 0.9 fold | 0.8 fold | 0.8 fold | 0.8 fold | 0.6 fold | 0.6 fold
5 | CCCCOCC(CN1CC1C)OC(=O)NCCCCCC/N=c1\oc(=O)n(CCCCCCNC(=O)OC(COCCCC)CN2CC2C)c(=O)n1CCCCCCNC(=O)OC(COCCCC)CN1CC1C (stereo not shown) [Ex. 15] | 1.0 fold | 1.1 fold | – | 1.1 fold | – | 0.9 fold | 1.1 fold | 1.1 fold | – | 1.0 fold | – | 0.9 fold
6 | CC1CN1C1CCCCC1OC(=O)NCCCCCCn1c(=O)n(CCCCCCNC(=O)OC2CCCCC2N2CC2C)c(=O)n(CCCCCCNC(=O)OC2CCCCC2N2CC2C)c1=O (stereo not shown) [Ex. 19] | 1.1 fold | 1.1 fold | 1.2 fold | 1.3 fold | 1.2 fold | – | 1.2 fold | 1.2 fold | 1.3 fold | 1.3 fold | 1.3 fold | –
7 | CCCCC(CC)COCC(CN1CC1C)OC(=O)NCCCCCCn1c(=O)n(CCCCCCNC(=O)OC(COCC(CC)CCCC)CN2CC2C)c(=O)n(CCCCCCNC(=O)OC(COCC(CC)CCCC)CN2CC2C)c1=O (stereo not shown) [Ex. 20] | 0.9 fold | 1.0 fold | 0.8 fold | 1.0 fold | 0.7 fold | 0.7 fold | 1.0 fold | 1.1 fold | 1.1 fold | 1.3 fold | 1.1 fold | 1.2 fold
8 | Cc1ccccc1OCC(CN1CC1C)OC(=O)NCCCCCCn1c(=O)n(CCCCCCNC(=O)OC(COc2ccccc2C)CN2CC2C)c(=O)n(CCCCCCNC(=O)OC(COc2ccccc2C)CN2CC2C)c1=O (stereo not shown) [Ex. 21] | 1.0 fold | 1.1 fold | 1.3 fold | 1.2 fold | 1.4 fold | 1.6 fold | 1.2 fold | 1.2 fold | 1.4 fold | 1.3 fold | 1.5 fold | 1.5 fold
9 | CCCCCCCCCC(=O)OCC(CN1CC1C)OC(=O)NC(C)(C)c1cccc(C(C)(C)NC(=O)OC(COC(=O)CCCCCCCCC)CN2CC2C)c1 (stereo not shown) [Ex. 22] | 1.2 fold | 1.0 fold | 1.2 fold | 1.0 fold | 1.2 fold | 0.9 fold | 1.1 fold | 1.0 fold | 1.1 fold | 1.0 fold | 1.0 fold | 1.0 fold
10 | CCCCCCCCCC(=O)OCC(CN1CC1C)OC(=O)NC1CCC(CC2CCC(NC(=O)OC(COC(=O)CCCCCCCCC)CN3CC3C)CC2)CC1 (stereo not shown) [Ex. 23] | 1.1 fold | 1.1 fold | 1.1 fold | 1.2 fold | 1.1 fold | 1.2 fold | 1.0 fold | 1.1 fold | 1.2 fold | 1.2 fold | 1.2 fold | 1.1 fold
11 | CCCCCCCCCC(=O)OCC(CN1CC1C)OC(=O)NCCCCCCn1c(=O)n(CCCCCCNC(=O)OC(COC(=O)CCCCCCCCC)CN2CC2C)c(=O)n(CCCCCCNC(=O)OC(COC(=O)CCCCCCCCC)CN2CC2C)c1=O (stereo not shown) [Ex. 24] | 1.0 fold | 1.1 fold | 1.1 fold | 1.2 fold | 1.1 fold | 1.0 fold | 1.1 fold | 1.1 fold | 1.1 fold | 1.2 fold | 1.2 fold | 1.0 fold
